Results taken from ChEMBL document CHEMBL2074091, “Transport of methotrexate, methotrexate polyglutamates, and 17beta-estradiol 17-(beta-D-glucuronide) by ABCG2: effects of acquired mutations at R482 on methotrexate transport” (Cancer Res, 2003).

Assays:
Format in all cases: functional, cell membranes
[1] = molecular target: Multidrug resistance associated protein (Homo sapiens) (UniProt Q96QA9); assay: TP_TRANSPORTER: uptake (vesicle) in membrane vesicles from MRP3-expressing HEK293 cells
[2] = molecular target: T1, Broad substrate specificity ATP-binding cassette transporter ABCG2 (Homo sapiens, UniProt Q9UNQ0); assay: (§1) TP_TRANSPORTER: uptake (vesicle) in membrane vesicle from ABCG2-R482-expressing HEK293 cells; settings: hek293
T1 sequence (Q9UNQ0 whole entry): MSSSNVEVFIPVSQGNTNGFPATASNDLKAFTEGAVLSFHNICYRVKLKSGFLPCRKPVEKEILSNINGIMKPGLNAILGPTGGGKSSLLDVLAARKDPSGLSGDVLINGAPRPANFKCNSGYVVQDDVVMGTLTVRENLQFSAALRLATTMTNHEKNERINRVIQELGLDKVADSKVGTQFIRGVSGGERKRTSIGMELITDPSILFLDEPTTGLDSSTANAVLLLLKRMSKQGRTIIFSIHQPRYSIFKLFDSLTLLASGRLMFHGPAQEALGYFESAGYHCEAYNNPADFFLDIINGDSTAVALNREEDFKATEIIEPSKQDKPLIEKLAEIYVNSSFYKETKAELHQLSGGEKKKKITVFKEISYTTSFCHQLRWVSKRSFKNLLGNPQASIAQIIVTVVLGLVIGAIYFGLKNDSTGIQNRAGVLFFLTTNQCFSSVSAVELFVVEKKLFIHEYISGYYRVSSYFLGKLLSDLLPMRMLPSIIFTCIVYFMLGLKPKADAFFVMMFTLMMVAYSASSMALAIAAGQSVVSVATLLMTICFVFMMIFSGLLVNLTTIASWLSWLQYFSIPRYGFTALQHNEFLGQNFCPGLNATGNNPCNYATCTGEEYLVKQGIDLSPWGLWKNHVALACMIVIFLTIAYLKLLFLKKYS

[3] = molecular target: ATP-binding cassette sub-family C member 2 (Homo sapiens, UniProt Q92887); assay: TP_TRANSPORTER: uptake (vesicle) in membrane vesicle from MRP2-expressing HEK293 cells
ABCG2 (R482) = molecular target: T2, ABCG2 (R482) (Homo sapiens, UniProt Q9UNQ0); assay: as §1; settings: membrane vesicles from ABCG2-R482-expressing HEK293 cells
T2 sequence (Q9UNQ0 whole entry): T1 sequence (Q9UNQ0 whole entry)

Multidrug resistance associated protein (Homo sapiens), sequence (Q96QA9 as listed by the source): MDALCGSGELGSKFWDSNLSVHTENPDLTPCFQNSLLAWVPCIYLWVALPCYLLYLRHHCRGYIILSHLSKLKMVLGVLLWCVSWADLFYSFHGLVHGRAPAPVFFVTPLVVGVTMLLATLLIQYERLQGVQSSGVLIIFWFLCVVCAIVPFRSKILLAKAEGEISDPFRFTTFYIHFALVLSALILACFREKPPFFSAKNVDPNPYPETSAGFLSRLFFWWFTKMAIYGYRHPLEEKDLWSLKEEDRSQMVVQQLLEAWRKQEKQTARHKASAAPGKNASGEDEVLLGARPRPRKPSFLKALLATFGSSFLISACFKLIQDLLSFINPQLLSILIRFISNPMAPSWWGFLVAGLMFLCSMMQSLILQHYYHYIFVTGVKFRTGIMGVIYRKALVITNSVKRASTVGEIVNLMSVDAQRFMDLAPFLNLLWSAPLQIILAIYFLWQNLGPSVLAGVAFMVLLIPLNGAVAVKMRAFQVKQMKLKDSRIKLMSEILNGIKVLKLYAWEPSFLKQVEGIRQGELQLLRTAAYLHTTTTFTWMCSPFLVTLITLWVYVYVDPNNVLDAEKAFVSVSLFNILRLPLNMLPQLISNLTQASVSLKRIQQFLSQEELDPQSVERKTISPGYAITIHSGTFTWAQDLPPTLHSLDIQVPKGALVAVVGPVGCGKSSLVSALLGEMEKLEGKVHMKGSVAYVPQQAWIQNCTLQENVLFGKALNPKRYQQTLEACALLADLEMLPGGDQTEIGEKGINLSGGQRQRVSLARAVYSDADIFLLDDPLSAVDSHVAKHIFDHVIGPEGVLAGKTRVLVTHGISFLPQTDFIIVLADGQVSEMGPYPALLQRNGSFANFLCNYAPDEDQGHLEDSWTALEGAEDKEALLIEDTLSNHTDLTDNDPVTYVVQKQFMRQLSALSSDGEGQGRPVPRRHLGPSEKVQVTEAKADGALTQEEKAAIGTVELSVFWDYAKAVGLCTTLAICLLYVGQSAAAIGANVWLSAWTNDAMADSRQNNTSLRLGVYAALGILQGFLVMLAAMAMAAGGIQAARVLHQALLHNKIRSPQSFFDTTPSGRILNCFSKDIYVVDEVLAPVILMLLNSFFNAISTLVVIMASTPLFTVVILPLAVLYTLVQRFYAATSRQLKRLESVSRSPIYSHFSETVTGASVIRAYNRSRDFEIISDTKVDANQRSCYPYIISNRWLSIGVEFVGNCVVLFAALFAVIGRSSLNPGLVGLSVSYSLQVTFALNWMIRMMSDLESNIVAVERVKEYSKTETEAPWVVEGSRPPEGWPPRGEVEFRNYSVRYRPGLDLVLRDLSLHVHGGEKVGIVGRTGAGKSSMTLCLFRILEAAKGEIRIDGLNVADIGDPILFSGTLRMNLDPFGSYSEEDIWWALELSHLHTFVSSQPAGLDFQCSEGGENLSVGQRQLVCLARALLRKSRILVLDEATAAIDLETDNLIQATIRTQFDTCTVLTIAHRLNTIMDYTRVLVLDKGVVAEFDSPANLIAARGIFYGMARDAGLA
ATP-binding cassette sub-family C member 2, sequence (Q92887 whole entry): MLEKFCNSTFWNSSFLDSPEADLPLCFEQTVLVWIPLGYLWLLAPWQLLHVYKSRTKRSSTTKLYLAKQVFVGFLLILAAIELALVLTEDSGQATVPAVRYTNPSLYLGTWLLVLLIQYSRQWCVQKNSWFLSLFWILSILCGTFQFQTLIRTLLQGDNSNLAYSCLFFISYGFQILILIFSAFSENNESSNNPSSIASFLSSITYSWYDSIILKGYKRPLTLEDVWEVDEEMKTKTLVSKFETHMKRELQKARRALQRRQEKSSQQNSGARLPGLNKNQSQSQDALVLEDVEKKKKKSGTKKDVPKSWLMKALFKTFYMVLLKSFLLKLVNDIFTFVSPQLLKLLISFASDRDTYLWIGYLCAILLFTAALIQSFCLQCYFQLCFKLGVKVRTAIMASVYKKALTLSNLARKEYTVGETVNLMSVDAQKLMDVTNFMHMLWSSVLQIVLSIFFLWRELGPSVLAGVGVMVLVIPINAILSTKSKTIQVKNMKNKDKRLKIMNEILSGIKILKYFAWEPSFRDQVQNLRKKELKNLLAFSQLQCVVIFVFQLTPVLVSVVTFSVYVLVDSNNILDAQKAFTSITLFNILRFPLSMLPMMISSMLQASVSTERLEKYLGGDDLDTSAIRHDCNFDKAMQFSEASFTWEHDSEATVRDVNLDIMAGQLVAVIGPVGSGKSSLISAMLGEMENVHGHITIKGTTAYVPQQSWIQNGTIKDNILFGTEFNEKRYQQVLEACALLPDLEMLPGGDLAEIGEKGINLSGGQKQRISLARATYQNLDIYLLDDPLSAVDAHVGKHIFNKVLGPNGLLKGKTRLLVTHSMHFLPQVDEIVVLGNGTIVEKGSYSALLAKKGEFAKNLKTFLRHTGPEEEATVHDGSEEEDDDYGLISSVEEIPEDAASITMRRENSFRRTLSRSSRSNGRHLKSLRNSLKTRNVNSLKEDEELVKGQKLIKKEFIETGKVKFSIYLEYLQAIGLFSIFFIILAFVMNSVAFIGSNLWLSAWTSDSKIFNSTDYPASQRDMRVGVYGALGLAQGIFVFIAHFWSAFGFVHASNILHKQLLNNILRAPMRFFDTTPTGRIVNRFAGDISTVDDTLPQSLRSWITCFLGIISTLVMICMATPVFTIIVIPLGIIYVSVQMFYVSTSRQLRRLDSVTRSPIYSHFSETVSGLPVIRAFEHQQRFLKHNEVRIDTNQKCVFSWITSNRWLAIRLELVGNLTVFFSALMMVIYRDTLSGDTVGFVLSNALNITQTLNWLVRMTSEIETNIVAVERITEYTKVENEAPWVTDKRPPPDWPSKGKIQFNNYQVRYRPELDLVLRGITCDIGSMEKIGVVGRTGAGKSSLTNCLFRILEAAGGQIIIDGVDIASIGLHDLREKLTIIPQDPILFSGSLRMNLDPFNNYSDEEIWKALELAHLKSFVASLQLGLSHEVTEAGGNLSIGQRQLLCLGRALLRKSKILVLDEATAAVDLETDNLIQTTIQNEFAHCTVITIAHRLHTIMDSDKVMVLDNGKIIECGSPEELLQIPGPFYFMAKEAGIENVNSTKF

| Activity [2] | SMILES | other results |
| --- | --- | --- |
| – | Nc1nc(=O)c2c([nH]1)NCC(CNc1ccc(C(=O)N[C@@H](CCC(=O)O)C(=O)O)cc1)N2C=O (some centres not stated) | Activity [1]: substrate [] |
| substrate [] | Nc1nc2ncc(CNc3ccc(C(=O)N[C@@H](CCC(=O)O)C(=O)O)cc3)nc2c(=O)[nH]1 [FOLIC ACID] | – |
| substrate [] | CN(Cc1cnc2nc(N)nc(N)c2n1)c1ccc(C(=O)N[C@@H](CCC(=O)N[C@@H](CCC(=O)N[C@@H](CCC(=O)O)C(=O)O)C(=O)O)C(=O)O)cc1 | – |
| substrate [] | CN(Cc1cnc2nc(N)nc(N)c2n1)c1ccc(C(=O)N[C@@H](CCC(=O)N[C@@H](CCC(=O)N[C@@H](CCC(=O)N[C@@H](CCC(=O)O)C(=O)O)C(=O)O)C(=O)O)C(=O)O)cc1 | – |
| – | Nc1nc2c(c(=O)[nH]1)N(C=O)C(CNc1ccc(C(=O)N[C@@H](CCC(=O)O)C(=O)O)cc1)CN2 (some centres not stated) [LEUCOVORIN] | Activity [3]: substrate [] |
| – | CN(Cc1cnc2nc(N)nc(N)c2n1)c1ccc(C(=O)N[C@@H](CCC(=O)O)C(=O)O)cc1 [METHOTREXATE] | Km (ABCG2 (R482)): 1300 µM |

| SMILES | Activity [2] | other results |
| --- | --- | --- |
| C[C@]12CC[C@@H]3c4ccc(O)cc4CC[C@H]3[C@@H]1CC[C@@H]2O[C@@H]1O[C@H](C(=O)O)[C@@H](O)[C@H](O)[C@H]1O [ESTRADIOL 17B GLUCURONIDE] | substrate [] | – |
